The source of these data is ChEMBL document CHEMBL1649551, “Antifungal activity of tamoxifen: in vitro and in vivo activities and mechanistic characterization” (2009).

As usually defined, the MIC is the smallest concentration in the dilution series that meets the test's criterion for growth inhibition. The low end stands for greater potency, the high end for weaker potency.

Values after ≈ are worked out from the molar mass of the structure shown. Active and inactive are the calls of the source.

Experiment [1] relates to Saccharomyces cerevisiae. In words: Antifungal activity against Saccharomyces cerevisiae BY4741 at 8 ug/ml by alexa fluor-phalloidin staining. Type of experiment: functional, organism-based.
Experiment [2] deals with Candida albicans. In words: Antifungal activity against Candida albicans SC5314 infected in BALB/c mouse assessed as fungal count per gram of kidney at 200 mg/kg, po administered for 7 days prior to fungal infection. Type of experiment: functional.
For experiment [3], the system named is Candida albicans. In words: Antifungal activity against Candida albicans ATCC 90028 after 24 hrs by CLSI method. Type of experiment: functional. The settings on record: ATCC 90028, 24 h.
For another experiment, the system named is Candida dubliniensis. In words: Antifungal activity against Candida dubliniensis CD1 after 24 hrs by CLSI method. Type of experiment: functional. The settings on record: CD1, 24 h.
Experiment [4] deals with Candida albicans. The experiment can be described thus: Antifungal activity against Candida albicans SC5314 at 16 ug/ml after 2 hrs by alexa fluor-phalloidin staining. Type of experiment: functional, organism-based.
The next experiment has as its system Candida tropicalis. In words: Antifungal activity against Candida tropicalis MR064-H after 24 hrs by CLSI method. Type of experiment: functional.
The subject of experiment [5] is Saccharomyces cerevisiae. In words: Antifungal activity against Saccharomyces cerevisiae BY4741 expressing PKC1 at 62 to 125 ug/mL after 3 days by photographic analysis. Type of experiment: functional, organism-based.
The target of experiment [6] is Calmodulin (Saccharomyces cerevisiae S288c) (UniProt P06787). In words: Inhibition of Myo2-GFP binding to Saccharomyces cerevisiae BY4741 calmodulin at 50 ug/ml by Western blot analysis. (A western blot detects proteins with antibodies after separation by electrophoresis.)
In experiment [7] the test system is Candida albicans. In words: Antifungal activity against Candida albicans SC5314 after 24 hrs by CLSI method. The settings on record: SC5314, 24 h. Type of experiment: functional.
In experiment [8] the test system is Saccharomyces cerevisiae. In words: Antifungal activity against Saccharomyces cerevisiae BY4741 assessed as inhibition fungal bud formation at 8 ug/ml. Type of experiment: functional, organism-based.
Another experiment has as its system Nakaseomyces glabratus. The experiment can be described thus: Antifungal activity against Candida glabrata MR084-G12 after 24 hrs by CLSI method. Type of experiment: functional. The settings on record: MR084-G12, 24 h.
Experiment [9] has as its system Saccharomyces cerevisiae. In words: Antifungal activity against Saccharomyces cerevisiae BY4741 expressing CMD1 at 62 to 125 ug/mL after 3 days by photographic analysis. Type of experiment: functional, organism-based.
Experiment [10] deals with Cryptococcus neoformans. The experiment can be described thus: Antifungal activity against Cryptococcus neoformans KN99alpha after 24 hrs by CLSI method. Type of experiment: functional.
Experiment [11] has as its system Cryptococcus neoformans. In words: Antifungal activity against Cryptococcus neoformans NYS3-81 after 24 hrs by CLSI method. Type of experiment: functional. The settings on record: NYS3-81, 24 h.
In experiment [12] the test system is Saccharomyces cerevisiae. In words: Antifungal activity against Saccharomyces cerevisiae BY4741 after 24 hrs by CLSI method. Type of experiment: functional. To be noted: BY4741, 24 h.
The test system of a further experiment is Candida parapsilosis. The experiment can be described thus: Antifungal activity against Candida parapsilosis R058-G12 after 24 hrs by CLSI method. To be noted: Lodderomyces parapsilosis, R058-G12, 24 h. Type of experiment: functional.
The subject of experiment [13] is Saccharomyces cerevisiae. In words: Antifungal activity against Saccharomyces cerevisiae BY4741 assessed as appearance of unbudded cells with more than one nucleus at 8 ug/ml. Type of experiment: functional.

Calmodulin (Saccharomyces cerevisiae S288c), sequence (P06787 whole entry): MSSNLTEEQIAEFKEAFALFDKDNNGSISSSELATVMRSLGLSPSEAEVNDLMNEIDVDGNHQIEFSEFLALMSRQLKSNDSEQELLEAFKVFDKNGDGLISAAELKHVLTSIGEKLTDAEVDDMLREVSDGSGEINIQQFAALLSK

Take `CC/C(=C(\c1ccccc1)c1ccc(OCCN(C)C)cc1)c1ccccc1` [TAMOXIFEN]: the result with Saccharomyces cerevisiae [1], in the experiment with Candida albicans [4], in the experiment with Saccharomyces cerevisiae [5], in the experiment on Saccharomyces cerevisiae [8] and in the experiment on Saccharomyces cerevisiae [9] was Active. The log10cfu with Candida albicans [2] is recorded as 1.5. Also, the MIC came out at 32 µg/mL (≈ 86.1 µM) against Candida albicans [3]; 16 µg/mL (≈ 43.1 µM) with Candida dubliniensis; 32 µg/mL (≈ 86.1 µM) against Candida tropicalis; 32 µg/mL (≈ 86.1 µM) against Candida albicans [7]; 8 µg/mL (≈ 21.5 µM) against Nakaseomyces glabratus; 64 µg/mL (≈ 172 µM) against Cryptococcus neoformans [10]. Also, the minimal inhibitory concentration (MIC) with Cryptococcus neoformans [11] amounted to 64 µg/mL (≈ 172 µM); in the experiment with Saccharomyces cerevisiae [12], 12 µg/mL (≈ 32.3 µM); in the experiment with Candida parapsilosis it was 64 µg/mL (≈ 172 µM). Besides, the inhibition entry in experiment [6] was “Active”. In addition, the Activity in the experiment on Saccharomyces cerevisiae [13] stood at 15%.
Consider `CCN(CC)CCOc1ccc(C(=C(Cl)c2ccccc2)c2ccccc2)cc1` [CLOMIPHENE], for which the MIC is more than 64 µg/mL in the experiment on Candida albicans [3]; 32 µg/mL (≈ 78.8 µM) in the experiment on Candida dubliniensis; 64 µg/mL (≈ 158 µM) in the experiment with Candida tropicalis; 32 µg/mL (≈ 78.8 µM) against Candida albicans [7]; 32 µg/mL (≈ 78.8 µM) with Nakaseomyces glabratus; 64 µg/mL (≈ 158 µM) against Cryptococcus neoformans [10]. For the same compound, the MIC in the experiment with Cryptococcus neoformans [11] was 64 µg/mL (≈ 158 µM); in the experiment with Saccharomyces cerevisiae [12], 18 µg/mL (≈ 44.3 µM); against Candida parapsilosis it was 64 µg/mL (≈ 158 µM).
As for `CN1CCN(CCCN2c3ccccc3Sc3ccc(Cl)cc32)CC1`, in experiment [6], the inhibition result was “Active”.
